The values that follow come from EP2519243B1, “COMPOSITIONS AND METHODS FOR TREATING HEPATITIS B VIRUS INFECTION” (priority 2009, dated 2011).

Like-named read-outs stand apart in the source and are kept apart here. Some results are limits rather than exact numbers.

Data set [1] relates to HBV. The conditions noted are these: cited from earlier work; for cumulative rate of resistance: in 5 years.
For data set [2] the following is noted: cited from earlier work.
Data set [3] relates to HBV. Kind of data set: Emax modeling of predicted day 29 HBV DNA reduction versus lamivudine dose. The conditions noted are these: Emax model estimate (standard error); Emax fixed to 4; day 29 predicted data. The arrangement: species or system human. The source says:
The predicted HBV DNA reduction data on day 29 were used for Emax modeling analyses for the purpose of defining optimal doses of lamivudine.
An Emax model in the form of E = Emax *ED50^h /(D^h+ED50^h) [formula] where E and Emax are the viral response with dose D and maximum viral response respectively; ED50 is the dose resulting in 50% of viral response; h is the Hill parameter. The maximum reduction of HBV NDA at 4 weeks achievable by a nucleoside/nucleotide antiviral is approximately 4 log10. (Buti et al. J. Hepatol. 39: S139-S142, 2003.) Therefore, in the Emax modeling herein, Emax was fixed to 4.
Using these estimates, viral responses at untested doses were predicted and results are illustrated in FIG. 3 and presented in Table 5.

The test system of data set [4] is HBV. The conditions noted are these: day 29, 100 mg/day dose; no additional benefits with 300 mg or 600 mg; cited from earlier work.
Data set [5] relates to HBV. Kind of data set: Viral dynamic analyses of serum HBV DNA under lamivudine therapy (model fit and simulation). The conditions noted are these: estimate (standard error). The arrangement: species or system human. The source says:
The HBV DNA data used in the unique assessments disclosed herein of HBV viral dynamics under lamivudine therapy were obtained from the previously published lamivudine dose-response curves (FIG. 1). […] Therefore, for the viral dynamic analyses, only data up to day 15 were used.
The digitalized data were converted to percent change from baseline as (Vt-V0)/V0 and further presented as Vt/V0, where V0 and Vt are the HBV DNA data at baseline and at time t after treatment initiation, respectively. The viral dynamic model as illustrated below was fitted to the Vt/V0 vs. time data: Vt /V0 = [(ε*u-a)/(u-a)]*exp(-u*t) + [(1-ε)*u/(u-a)]*exp(-a*t) [formula] where u is the clearance rate constant of free virions; a is the clearance rate constant of infected cells; ε is the inhibition efficacy.
Table 3. Exemplary viral dynamic parameter estimates (standard error) of lamivudine
These analyses are illustrated in FIG. 2.
Table 4. Examples of model predicted HBV DNA reduction from baseline on long10 scale (% change)

Turning to `CC(C)(C)C(=O)OCOP(=O)(COCCn1cnc2c(N)ncnc21)OCOC(=O)C(C)(C)C` [adefovir dipivoxil, 9-[2-[[bis[(pivaloyloxy)methoxy]-phosphinyl]-methoxy]ethyl]adenine], the “cumulative rate of resistance” value in data set [1] (HBeAg negative patients) is on record as 29%; in data set [1] (HBeAg positive patients) it was “about 20%”. Further, the 5-year resistance rate in data set [1] (monotherapy) is 20-30%. Moreover, in data set [2] (10 mg per day, 4-5 years, patients with compensated liver disease), the “cumulative rate of nephrotoxicity” value is listed as 3%. The “adefovir-associated nephrotoxicity (patients)” value in data set [2] (decompensated liver disease and liver transplantation, treatment periods of 39-99 weeks) is “up to 47%”.

`Nc1ccn([C@@H]2CS[C@H](CO)O2)c(=O)n1` (relative stereo) [lamivudine, (2R,cis)-4-amino-1-(2-hydroxymethyl-1,3-oxathiolan-5-yl)-(1H)-pyrimidin-2-one]: the “ED50 (dose resulting in 50% of viral response)” value in data set [3] was 101.5 (29.04) mg. Besides, the “maximal observed viral suppression (median, from baseline)” value in data set [4] is at least 98%. Also, the “e (inhibition efficacy)” value is given as 0.6193 (0.0369) in data set [5] (lamivudine 5 mg/day); 0.8186 (0.0374) in data set [5] (lamivudine 20 mg/day); 0.8173 (0.0254) in data set [5] (lamivudine 100 mg/day); 0.8463 (0.0087) in data set [5] (lamivudine 300 mg/day); 0.8673 (0.0248) in data set [5] (lamivudine 600 mg/day).
